Experimental data from PMC3694096, “Development of Novel In Vivo Chemical Probes to Address CNS Protein Kinase Involvement in Synaptic Dysfunction” (PLoS ONE, 2013).
Read-outs that look alike come from different tables or passages of the source.

Key:
AMPKα2 = target: T1, AMPKα2 (Homo sapiens, UniProt P54646); test: Kinome profiler screen; type: biochemical; details: at 20,000 nM inhibitor; kinase activity remaining
T1 construct: purchased Millipore KinaseProfiler

ASK1 = target: T2, ASK1 (Homo sapiens, UniProt Q99683); test: Kinome profiler screen; type: biochemical; details: at 20,000 nM inhibitor; kinase activity remaining
T2 construct: purchased Millipore KinaseProfiler

CaMKIIβ = target: T3, CaMKIIβ (Homo sapiens, UniProt Q13554); test: Kinome profiler screen; type: biochemical; details: at 20,000 nM inhibitor; kinase activity remaining
T3 construct: purchased Millipore KinaseProfiler

CaMKIIγ = target: T4, CaMKIIγ (Homo sapiens, UniProt Q13555); test: Kinome profiler screen; type: biochemical; details: at 20,000 nM inhibitor; kinase activity remaining
T4 construct: purchased Millipore KinaseProfiler

CDK1/cyclinB = target: T5, CDK1/cyclinB (Homo sapiens, UniProt P06493); test: Kinome profiler screen; type: biochemical; details: at 20,000 nM inhibitor; kinase activity remaining
T5 construct: purchased Millipore KinaseProfiler

CDK2/cyclinA = target: T6, CDK2/cyclinA (Homo sapiens, UniProt P24941); test: Kinome profiler screen; type: biochemical; details: at 20,000 nM inhibitor; kinase activity remaining
T6 construct: purchased Millipore KinaseProfiler

CDK2/cyclinE = target: T7, CDK2/cyclinE (Homo sapiens, UniProt P24941); test: Kinome profiler screen; type: biochemical; details: at 20,000 nM inhibitor; kinase activity remaining
T7 construct: purchased Millipore KinaseProfiler

CDK5/p25 = target: T8, CDK5/p25 (Homo sapiens, UniProt Q00535); test: Kinome profiler screen; type: biochemical; details: at 20,000 nM inhibitor; kinase activity remaining
T8 construct: purchased Millipore KinaseProfiler

CDK5/p35 = target: T9, CDK5/p35 (Homo sapiens, UniProt Q00535); test: Kinome profiler screen; type: biochemical; details: at 20,000 nM inhibitor; kinase activity remaining
T9 construct: purchased Millipore KinaseProfiler

CDK9/cyclin T1 = target: T10, CDK9/cyclin T1 (Homo sapiens, UniProt P50750); test: Kinome profiler screen; type: biochemical; details: at 20,000 nM inhibitor; kinase activity remaining
T10 construct: purchased Millipore KinaseProfiler

CHK2 = target: T11, CHK2 (Homo sapiens, UniProt O96017); test: Kinome profiler screen; type: biochemical; details: at 20,000 nM inhibitor; kinase activity remaining
T11 construct: purchased Millipore KinaseProfiler

CK1γ1 = target: T12, CK1γ1 (Homo sapiens, UniProt Q9HCP0); test: Kinome profiler screen; type: biochemical; details: at 20,000 nM inhibitor; kinase activity remaining
T12 construct: purchased Millipore KinaseProfiler

CK2α2 = target: T13, CK2α2 (Homo sapiens, UniProt P19784); test: Kinome profiler screen; type: biochemical
T13 construct: purchased Millipore KinaseProfiler

DCAMKL2 = target: T14, DCAMKL2 (Homo sapiens, UniProt Q8N568); test: Kinome profiler screen; type: biochemical; details: at 20,000 nM inhibitor; kinase activity remaining
T14 construct: purchased Millipore KinaseProfiler

eEF-2K = target: T15, eEF-2K (Homo sapiens, UniProt O00418); test: Kinome profiler screen; type: biochemical; details: at 20,000 nM inhibitor; kinase activity remaining
T15 construct: purchased Millipore KinaseProfiler

EGFR(T790M,L858R) = target: T16, EGFR(T790M,L858R) (Homo sapiens, UniProt P00533, L858R/T790M); test: Kinome profiler screen; type: biochemical; details: at 20,000 nM inhibitor; kinase activity remaining
T16 construct: purchased Millipore KinaseProfiler

EphA3 = target: T17, EphA3 (Homo sapiens, UniProt P29320); test: Kinome profiler screen; type: biochemical; details: at 20,000 nM inhibitor; kinase activity remaining
T17 construct: purchased Millipore KinaseProfiler

EphB1 = target: T18, EphB1 (Homo sapiens, UniProt P54762); test: Kinome profiler screen; type: biochemical
T18 construct: purchased Millipore KinaseProfiler

EphB4 = target: T19, EphB4 (Homo sapiens, UniProt P54760); test: Kinome profiler screen; type: biochemical; details: at 20,000 nM inhibitor; kinase activity remaining
T19 construct: purchased Millipore KinaseProfiler

Fms(Y969C) = target: T20, Fms(Y969C) (Homo sapiens, UniProt P07333, Y969C); test: Kinome profiler screen; type: biochemical; details: at 20,000 nM inhibitor; kinase activity remaining
T20 construct: purchased Millipore KinaseProfiler

GCK = target: T21, GCK (Homo sapiens, UniProt Q12851); test: Kinome profiler screen; type: biochemical; details: at 20,000 nM inhibitor; kinase activity remaining
T21 construct: purchased Millipore KinaseProfiler

Haspin = target: T22, Haspin (Homo sapiens, UniProt Q8TF76); test: Kinome profiler screen; type: biochemical; details: at 20,000 nM inhibitor; kinase activity remaining
T22 construct: purchased Millipore KinaseProfiler

IR = target: T23, IR (Homo sapiens, UniProt P06213); test: Kinome profiler screen; type: biochemical; details: at 20,000 nM inhibitor; kinase activity remaining
T23 construct: purchased Millipore KinaseProfiler

Itk = target: T24, Itk (Homo sapiens, UniProt Q08881); test: Kinome profiler screen; type: biochemical; details: at 20,000 nM inhibitor; kinase activity remaining
T24 construct: purchased Millipore KinaseProfiler

Lck = target: T25, Lck (Homo sapiens, UniProt P06239); test: Kinome profiler screen; type: biochemical; details: at 20,000 nM inhibitor; kinase activity remaining
T25 construct: purchased Millipore KinaseProfiler

Mer = target: T26, Mer (Homo sapiens, UniProt Q12866); test: Kinome profiler screen; type: biochemical; details: at 20,000 nM inhibitor; kinase activity remaining
T26 construct: purchased Millipore KinaseProfiler

MST2 = target: T27, MST2 (Homo sapiens, UniProt Q13188); test: Kinome profiler screen; type: biochemical; details: at 20,000 nM inhibitor; kinase activity remaining
T27 construct: purchased Millipore KinaseProfiler

mTOR = target: T28, mTOR (Homo sapiens, UniProt P42345); test: Kinome profiler screen; type: biochemical; details: at 20,000 nM inhibitor; kinase activity remaining
T28 construct: purchased Millipore KinaseProfiler

PDGFRα = target: T29, PDGFRα (Homo sapiens, UniProt P16234); test: Kinome profiler screen; type: biochemical; details: at 20,000 nM inhibitor; kinase activity remaining
T29 construct: purchased Millipore KinaseProfiler

PI3K-C2γ = target: T30, PI3K-C2γ (Homo sapiens, UniProt O75747); test: Kinome profiler screen; type: biochemical; details: at 20,000 nM inhibitor; kinase activity remaining
T30 construct: purchased Millipore KinaseProfiler

PKBγ = target: T31, PKBγ (Homo sapiens, UniProt Q9Y243); test: Kinome profiler screen; type: biochemical; details: at 20,000 nM inhibitor; kinase activity remaining
T31 construct: purchased Millipore KinaseProfiler

Pyk2 = target: T32, Pyk2 (Homo sapiens, UniProt Q14289); test: Kinome profiler screen; type: biochemical; details: at 20,000 nM inhibitor; kinase activity remaining
T32 construct: purchased Millipore KinaseProfiler

Rsk1 = target: T33, Rsk1 (Homo sapiens, UniProt Q15418); test: Kinome profiler screen; type: biochemical; details: at 20,000 nM inhibitor; kinase activity remaining
T33 construct: purchased Millipore KinaseProfiler

Rsk1(r) = target: T34, Rsk1(r) (Rattus norvegicus, UniProt Q63531); test: Kinome profiler screen; type: biochemical; details: at 20,000 nM inhibitor; kinase activity remaining
T34 construct: purchased Millipore KinaseProfiler

TGFBR1 = target: T35, TGFBR1 (Homo sapiens, UniProt P36897); test: Kinome profiler screen; type: biochemical; details: at 20,000 nM inhibitor; kinase activity remaining
T35 construct: purchased Millipore KinaseProfiler

Tie2 = target: T36, Tie2 (Homo sapiens, UniProt Q02763); test: Kinome profiler screen; type: biochemical; details: at 20,000 nM inhibitor; kinase activity remaining
T36 construct: purchased Millipore KinaseProfiler

Tie2(R849W) = target: T37, Tie2(R849W) (Homo sapiens, UniProt Q02763, R849W); test: Kinome profiler screen; type: biochemical; details: at 20,000 nM inhibitor; kinase activity remaining
T37 construct: purchased Millipore KinaseProfiler

Tie2(Y897S) = target: T38, Tie2(Y897S) (Homo sapiens, UniProt Q02763, Y897S); test: Kinome profiler screen; type: biochemical; details: at 20,000 nM inhibitor; kinase activity remaining
T38 construct: purchased Millipore KinaseProfiler

TrkB = target: T39, TrkB (Homo sapiens, UniProt Q16620); test: Kinome profiler screen; type: biochemical
T39 construct: purchased Millipore KinaseProfiler

ULK3 = target: T40, ULK3 (Homo sapiens, UniProt Q6PHR2); test: Kinome profiler screen; type: biochemical; details: at 20,000 nM inhibitor; kinase activity remaining
T40 construct: purchased Millipore KinaseProfiler

ZAP-70 = target: T41, ZAP-70 (Homo sapiens, UniProt P43403); test: Kinome profiler screen; type: biochemical; details: at 20,000 nM inhibitor; kinase activity remaining
T41 construct: purchased Millipore KinaseProfiler

BV-2 cells = test: IL-1β production in BV-2 cells stimulated with TLR ligands; type: cell-based, murine; details: ligands for TLR2, TLR4, TLR7/8, TLR9
[1] = at 20,000 nM inhibitor, kinase activity remaining, read-out: % Activity

T2 sequence (Q99683 whole entry): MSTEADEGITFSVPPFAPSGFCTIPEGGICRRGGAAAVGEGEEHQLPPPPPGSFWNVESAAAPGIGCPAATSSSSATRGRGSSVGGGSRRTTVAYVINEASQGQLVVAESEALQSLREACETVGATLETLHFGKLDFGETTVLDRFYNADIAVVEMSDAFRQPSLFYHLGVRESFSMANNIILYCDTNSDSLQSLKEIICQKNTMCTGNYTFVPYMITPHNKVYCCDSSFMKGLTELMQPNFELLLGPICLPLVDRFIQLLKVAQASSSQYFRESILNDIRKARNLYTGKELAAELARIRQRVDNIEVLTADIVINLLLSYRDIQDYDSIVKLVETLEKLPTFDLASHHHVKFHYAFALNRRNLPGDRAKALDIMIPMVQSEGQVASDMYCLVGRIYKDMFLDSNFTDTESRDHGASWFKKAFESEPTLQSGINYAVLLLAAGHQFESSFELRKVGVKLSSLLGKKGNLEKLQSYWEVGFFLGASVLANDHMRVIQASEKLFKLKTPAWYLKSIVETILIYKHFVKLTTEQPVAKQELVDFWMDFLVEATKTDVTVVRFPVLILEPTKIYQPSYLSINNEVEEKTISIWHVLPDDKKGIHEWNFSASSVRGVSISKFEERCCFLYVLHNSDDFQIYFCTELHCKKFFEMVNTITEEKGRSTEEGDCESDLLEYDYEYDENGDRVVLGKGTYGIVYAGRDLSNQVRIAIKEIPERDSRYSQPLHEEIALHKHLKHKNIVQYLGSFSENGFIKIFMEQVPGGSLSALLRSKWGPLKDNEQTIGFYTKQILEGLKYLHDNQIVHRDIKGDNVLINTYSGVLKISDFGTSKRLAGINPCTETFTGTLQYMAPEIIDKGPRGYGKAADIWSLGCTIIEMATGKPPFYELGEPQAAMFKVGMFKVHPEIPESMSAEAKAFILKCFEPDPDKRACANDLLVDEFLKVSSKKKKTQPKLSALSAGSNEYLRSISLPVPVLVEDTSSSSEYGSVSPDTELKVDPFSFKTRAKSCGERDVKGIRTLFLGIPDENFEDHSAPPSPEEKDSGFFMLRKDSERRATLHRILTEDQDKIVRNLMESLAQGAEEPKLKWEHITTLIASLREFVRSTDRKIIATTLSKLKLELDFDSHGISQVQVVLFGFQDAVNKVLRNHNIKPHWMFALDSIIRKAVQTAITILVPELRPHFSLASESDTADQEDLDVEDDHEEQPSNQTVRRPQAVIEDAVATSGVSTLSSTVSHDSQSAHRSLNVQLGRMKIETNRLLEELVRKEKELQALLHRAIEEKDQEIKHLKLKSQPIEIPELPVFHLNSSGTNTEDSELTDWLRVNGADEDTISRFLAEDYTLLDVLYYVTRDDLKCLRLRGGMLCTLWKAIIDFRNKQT
T14 sequence (Q8N568 whole entry): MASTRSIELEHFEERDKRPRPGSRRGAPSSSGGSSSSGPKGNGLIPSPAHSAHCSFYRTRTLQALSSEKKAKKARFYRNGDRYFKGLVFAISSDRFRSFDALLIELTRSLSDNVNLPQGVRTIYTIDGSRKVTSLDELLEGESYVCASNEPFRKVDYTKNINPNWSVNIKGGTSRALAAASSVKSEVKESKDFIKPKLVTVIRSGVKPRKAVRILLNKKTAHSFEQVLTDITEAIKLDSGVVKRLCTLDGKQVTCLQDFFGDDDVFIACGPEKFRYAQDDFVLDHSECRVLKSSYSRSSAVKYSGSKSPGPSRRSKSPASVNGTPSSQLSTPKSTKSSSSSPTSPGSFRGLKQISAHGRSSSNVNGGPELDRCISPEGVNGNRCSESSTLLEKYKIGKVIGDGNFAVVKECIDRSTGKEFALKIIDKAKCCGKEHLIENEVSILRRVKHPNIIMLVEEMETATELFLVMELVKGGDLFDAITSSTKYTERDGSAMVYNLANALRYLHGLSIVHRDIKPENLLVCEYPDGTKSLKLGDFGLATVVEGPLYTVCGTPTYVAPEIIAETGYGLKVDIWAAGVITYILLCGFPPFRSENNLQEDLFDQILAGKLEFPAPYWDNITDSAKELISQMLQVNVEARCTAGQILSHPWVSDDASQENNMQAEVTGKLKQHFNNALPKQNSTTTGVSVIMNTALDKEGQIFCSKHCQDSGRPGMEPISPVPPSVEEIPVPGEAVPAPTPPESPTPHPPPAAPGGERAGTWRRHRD
T29 sequence (P16234 24-1089): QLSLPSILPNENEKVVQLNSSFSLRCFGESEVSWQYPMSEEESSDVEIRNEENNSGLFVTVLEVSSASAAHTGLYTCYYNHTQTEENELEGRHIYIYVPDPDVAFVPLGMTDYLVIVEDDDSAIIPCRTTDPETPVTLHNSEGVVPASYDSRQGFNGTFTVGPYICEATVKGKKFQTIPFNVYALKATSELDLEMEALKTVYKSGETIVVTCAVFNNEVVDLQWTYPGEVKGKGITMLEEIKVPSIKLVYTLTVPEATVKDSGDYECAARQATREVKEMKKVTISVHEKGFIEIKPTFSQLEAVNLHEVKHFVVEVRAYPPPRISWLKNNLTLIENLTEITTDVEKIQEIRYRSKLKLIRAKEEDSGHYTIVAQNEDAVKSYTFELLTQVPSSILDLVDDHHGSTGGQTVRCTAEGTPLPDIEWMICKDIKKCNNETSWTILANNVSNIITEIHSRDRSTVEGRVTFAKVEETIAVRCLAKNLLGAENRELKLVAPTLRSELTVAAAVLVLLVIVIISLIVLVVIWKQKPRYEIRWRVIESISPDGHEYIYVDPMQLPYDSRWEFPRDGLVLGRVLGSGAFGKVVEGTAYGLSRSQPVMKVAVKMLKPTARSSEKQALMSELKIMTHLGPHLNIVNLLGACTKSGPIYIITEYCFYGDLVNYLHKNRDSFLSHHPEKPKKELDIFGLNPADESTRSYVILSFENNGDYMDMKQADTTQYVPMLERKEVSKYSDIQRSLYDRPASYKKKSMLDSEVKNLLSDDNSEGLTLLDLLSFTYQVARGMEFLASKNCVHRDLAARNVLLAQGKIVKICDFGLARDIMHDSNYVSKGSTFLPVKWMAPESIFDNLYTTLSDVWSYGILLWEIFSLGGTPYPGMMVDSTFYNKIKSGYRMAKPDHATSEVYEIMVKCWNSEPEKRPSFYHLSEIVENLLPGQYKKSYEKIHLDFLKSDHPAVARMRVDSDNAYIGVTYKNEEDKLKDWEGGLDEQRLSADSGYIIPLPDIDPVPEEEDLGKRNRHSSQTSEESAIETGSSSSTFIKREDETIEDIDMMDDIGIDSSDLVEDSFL
T33 sequence (Q15418 whole entry): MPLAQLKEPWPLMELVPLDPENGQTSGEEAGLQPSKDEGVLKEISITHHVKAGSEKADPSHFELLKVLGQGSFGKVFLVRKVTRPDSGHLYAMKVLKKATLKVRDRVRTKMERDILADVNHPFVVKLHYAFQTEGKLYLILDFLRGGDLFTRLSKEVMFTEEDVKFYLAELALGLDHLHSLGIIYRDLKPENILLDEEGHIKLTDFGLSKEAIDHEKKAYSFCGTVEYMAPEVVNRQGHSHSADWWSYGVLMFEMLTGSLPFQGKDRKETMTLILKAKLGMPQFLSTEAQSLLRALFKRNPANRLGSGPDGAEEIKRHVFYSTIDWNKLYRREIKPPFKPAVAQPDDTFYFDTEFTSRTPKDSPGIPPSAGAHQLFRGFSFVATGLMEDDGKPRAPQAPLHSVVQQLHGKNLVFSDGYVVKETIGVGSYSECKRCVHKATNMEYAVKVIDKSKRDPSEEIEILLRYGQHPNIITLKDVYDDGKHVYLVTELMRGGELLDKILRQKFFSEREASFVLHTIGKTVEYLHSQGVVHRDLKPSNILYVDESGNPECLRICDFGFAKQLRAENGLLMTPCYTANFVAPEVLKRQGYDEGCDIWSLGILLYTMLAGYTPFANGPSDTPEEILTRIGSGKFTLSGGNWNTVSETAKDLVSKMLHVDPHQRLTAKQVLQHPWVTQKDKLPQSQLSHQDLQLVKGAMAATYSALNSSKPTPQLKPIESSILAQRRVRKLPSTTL
T31 sequence (Q9Y243 whole entry): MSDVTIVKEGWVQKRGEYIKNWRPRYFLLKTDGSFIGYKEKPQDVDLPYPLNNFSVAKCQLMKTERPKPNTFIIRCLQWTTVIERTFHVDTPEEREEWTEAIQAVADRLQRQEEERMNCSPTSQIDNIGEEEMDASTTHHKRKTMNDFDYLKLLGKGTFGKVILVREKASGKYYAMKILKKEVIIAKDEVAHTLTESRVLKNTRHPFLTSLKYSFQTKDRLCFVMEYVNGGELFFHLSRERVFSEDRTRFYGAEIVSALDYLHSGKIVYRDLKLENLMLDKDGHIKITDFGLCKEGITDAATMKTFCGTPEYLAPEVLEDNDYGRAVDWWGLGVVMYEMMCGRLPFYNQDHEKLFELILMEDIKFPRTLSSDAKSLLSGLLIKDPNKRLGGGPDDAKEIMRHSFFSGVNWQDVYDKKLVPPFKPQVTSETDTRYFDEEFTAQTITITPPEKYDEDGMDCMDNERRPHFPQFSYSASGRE
T4 sequence (Q13555 whole entry): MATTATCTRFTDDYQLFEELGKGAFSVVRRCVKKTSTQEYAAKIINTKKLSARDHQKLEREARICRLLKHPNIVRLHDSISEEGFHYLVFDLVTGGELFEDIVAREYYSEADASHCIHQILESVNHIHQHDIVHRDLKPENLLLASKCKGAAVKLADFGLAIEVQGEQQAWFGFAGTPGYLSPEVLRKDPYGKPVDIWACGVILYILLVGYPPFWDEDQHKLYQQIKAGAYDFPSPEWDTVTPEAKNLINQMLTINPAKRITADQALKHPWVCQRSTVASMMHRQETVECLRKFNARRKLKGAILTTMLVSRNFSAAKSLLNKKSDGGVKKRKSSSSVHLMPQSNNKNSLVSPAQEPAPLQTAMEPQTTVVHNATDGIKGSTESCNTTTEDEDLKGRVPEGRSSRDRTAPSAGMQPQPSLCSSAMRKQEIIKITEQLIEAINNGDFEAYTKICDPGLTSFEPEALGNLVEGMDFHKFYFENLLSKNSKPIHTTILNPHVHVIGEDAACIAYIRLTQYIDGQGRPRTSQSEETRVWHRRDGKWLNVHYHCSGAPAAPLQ

CN(C)c1cc(-c2ccncc2)c(-c2cccc3ccccc23)nn1 [MW181, N,N-dimethyl-6-(naphthalen-1-yl)-5-(pyridin-4-yl)pyridazin-3-amine]
activity at 20 µM (AMPKα2): 95%
activity at 20 µM (ASK1): 109%
activity at 20 µM (CaMKIIβ): 108%
activity at 20 µM (CaMKIIγ): 100%
activity at 20 µM (CDK1/cyclinB): 113%
activity at 20 µM (CDK2/cyclinA): 92%
activity at 20 µM (CDK2/cyclinE): 118%
activity at 20 µM (CDK5/p25): 99%
activity at 20 µM (CDK5/p35): 95%
activity at 20 µM (CDK9/cyclin T1): 104%
activity at 20 µM (CHK2): 96%
activity at 20 µM (CK1γ1): 101%
activity at 20 µM (CK2α2; [1]): 99%
activity at 20 µM (DCAMKL2): 101%
activity at 20 µM (eEF-2K): 98%
activity at 20 µM (EGFR(T790M,L858R)): 80%
activity at 20 µM (EphA3): 102%
activity at 20 µM (EphB1; [1]): 100%
activity at 20 µM (EphB4): 100%
activity at 20 µM (Fms(Y969C)): 91%
activity at 20 µM (GCK): 101%
activity at 20 µM (Haspin): 93%
activity at 20 µM (IR): 112%
activity at 20 µM (Itk): 91%
activity at 20 µM (Lck): 89%
activity at 20 µM (Mer): 100%
activity at 20 µM (MST2): 105%
activity at 20 µM (mTOR): 109%
activity at 20 µM (PDGFRα): 103%
activity at 20 µM (PI3K-C2γ): 97%
activity at 20 µM (PKBγ): 100%
activity at 20 µM (Pyk2): 101%
activity at 20 µM (Rsk1): 98%
activity at 20 µM (Rsk1(r)): 93%
activity at 20 µM (TGFBR1): 113%
activity at 20 µM (Tie2): 99%
activity at 20 µM (Tie2(R849W)): 99%
activity at 20 µM (Tie2(Y897S)): 95%
activity at 20 µM (TrkB; [1]): 109%
activity at 20 µM (ULK3): 106%
activity at 20 µM (ZAP-70): 99%
IL-1β production with diverse TLR ligands (BV-2 cells): suppressed IL-1β production

CN(C)c1cc(-c2ccncc2)c(-c2ccc3ccccc3c2)nn1 [MW108, N, N-dimethyl-6-(naphthalen-2-yl)-5-(pyridin-4-yl)pyridazin-3-amine]
activity at 20 µM (AMPKα2): 102%
activity at 20 µM (ASK1): 103%
activity at 20 µM (CaMKIIβ): 96%
activity at 20 µM (CaMKIIγ): 99%
activity at 20 µM (CDK1/cyclinB): 90%
activity at 20 µM (CDK2/cyclinA): 79%
activity at 20 µM (CDK2/cyclinE): 108%
activity at 20 µM (CDK5/p25): 106%
activity at 20 µM (CDK5/p35): 99%
activity at 20 µM (CDK9/cyclin T1): 95%
activity at 20 µM (CHK2): 97%
activity at 20 µM (CK1γ1): 101%
activity at 20 µM (CK2α2): 114%
activity at 20 µM (DCAMKL2): 109%
activity at 20 µM (eEF-2K): 108%
activity at 20 µM (EGFR(T790M,L858R)): 40%
activity at 20 µM (EphA3): 101%
activity at 20 µM (EphB1): 92%
activity at 20 µM (EphB4): 54%
activity at 20 µM (Fms(Y969C)): 100%
activity at 20 µM (GCK): 101%
activity at 20 µM (Haspin): 87%
activity at 20 µM (IR): 100%
activity at 20 µM (Itk): 90%
activity at 20 µM (Lck): 62%
activity at 20 µM (Mer): 98%
activity at 20 µM (MST2): 98%
activity at 20 µM (mTOR): 92%
activity at 20 µM (PDGFRα): 106%
activity at 20 µM (PI3K-C2γ): 50%
activity at 20 µM (PKBγ): 92%
activity at 20 µM (Pyk2): 106%
activity at 20 µM (Rsk1): 93%
activity at 20 µM (Rsk1(r)): 91%
activity at 20 µM (TGFBR1): 76%
activity at 20 µM (Tie2): 81%
activity at 20 µM (Tie2(R849W)): 77%
activity at 20 µM (Tie2(Y897S)): 95%
activity at 20 µM (TrkB): 78%
activity at 20 µM (ULK3): 95%
activity at 20 µM (ZAP-70): 92%
IL-1β production with diverse TLR ligands (BV-2 cells): suppressed IL-1β production
